Legend:
HIV-1 protease = biological target: T1, HIV-1 protease (Human immunodeficiency virus type 1 group M subtype B, UniProt P03369); experiment: HIV-1 PR inhibition (HPLC assay of HIV substrate IV cleavage after preincubation with inhibitor); format: biochemical
T1 construct: each of the identical 99 amino acid subunits contributes a single aspartyl residue to the catalytic site; made in house; host or cells: chemical synthesis (no expression host); obtained from Dr. Stephen Kent, The Scripps Research Institute
Experimental: Typical reactions were carried out at room temperature (25° C.) in 150 μl total volumes of 100 mM MES buffer, pH 6.2, containing 1 mM ethylenediaminetetraacetic acid (EDTA) and 2 mM dithiothreitol (DTT) plus 0.1 percent (v/v) Triton X-100.
Synthetic HIV-1 protease [0.5 μg, obtained from Dr. Stephen Kent of The Scripps Research Institute; see Cell, 1988, 54; 363-368] was first incubated in buffer with (or without) various concentrations of "inhibitor(s)" for 30 minutes at 25° C. The protease reaction was then initiated by the addition of HIV substrate IV (Bachem Bioscience Inc.) at fixed concentrations (e.g., 100 mg/ml). HIV Substrate IV has the sequence
Lys-Ala-Arg-Val-Nle-p-NO2 Phe-glu-Ala-Nle-NH2 (SEQ ID NO 15)
At three appropriate times (normally 40, 80 and 120 minutes) the hydrolysis was stopped by adding a 40 μl aliquot from the reaction to 40 μl of a prepared quench solution. The quench solution was 1:4 acetonitrile:water (3 percent trifluoroacetic acid; TFA) and contained 150 μM m-toluic acid which served as an HPLC standard. […] Reaction progress was monitored by following the increasing absorbance (peak height) of the substrate IV cleavage product detected at […]. […]

HIV-1 PR = conditions: Blumenstein et al. 1989; cited from earlier work
HIV-2 PR = conditions: Blumenstein et al. 1989; cited from earlier work

Row | SMILES | t1/2 of inactivation of the protease (HIV-1 protease; 2 mM inhibitor, preincubation, 25° C., pH 6.2) | mode of inhibition of HIV-1 PR (HIV-1 protease; preincubation with 2 mM inhibitor (FIG. 1)) | inhibition of HIV-1 PR (HIV-1 PR) | inhibition of HIV-2 PR (HIV-2 PR)
1 | CC(C)(C)OC(=O)N[C@@H](Cc1ccccc1)C1(C)CO1 (stereo partly shown) [Example 2] | 3 h | competitive and timedependent inactivation |  | 
2 | C/C=C/C/C=C/CCC(=O)[C@H]1O[C@H]1C(N)=O [cerulenin] |  |  | weakly inhibit | weakly inhibit
